Laboratory results published in article PMC7407272, “Induction of Lysosome Membrane Permeabilization as a Therapeutic Strategy to Target Pancreatic Cancer Stem Cells” (Cancers, 2020).

How the values were obtained:
Assay in all cases: KINOMEscan
WEE1 = molecular target: T1, WEE1 (Homo sapiens, UniProt P30291); assay type: binding; conditions: read-out: % Ctrl
T1 construct: purchased DiscoveRx KINOMEscan

CASK = molecular target: T2, CASK (Homo sapiens, UniProt O14936); assay type: binding; conditions: read-out: % Ctrl
T2 construct: purchased DiscoveRx KINOMEscan

RPS6KA4(KD2-C-t.) = molecular target: T3, RPS6KA4(KD2-C-t.) (Homo sapiens, UniProt O75676); assay type: binding; conditions: read-out: % Ctrl
T3 construct: RPS6KA4(KD2-C-t.); purchased DiscoveRx KINOMEscan

MEK1 = molecular target: T4, MEK1 (Homo sapiens, UniProt Q02750); assay type: binding; conditions: read-out: % Ctrl
T4 construct: purchased DiscoveRx KINOMEscan

EPHA8 = molecular target: T5, EPHA8 (Homo sapiens, UniProt P29322); assay type: binding; conditions: read-out: % Ctrl
T5 construct: purchased DiscoveRx KINOMEscan

HASPIN = molecular target: T6, HASPIN (Homo sapiens, UniProt Q8TF76); assay type: binding; parameters: purchased DiscoveRx KINOMEscan; conditions: read-out: % Ctrl
T6 sequence (Q8TF76 1-798): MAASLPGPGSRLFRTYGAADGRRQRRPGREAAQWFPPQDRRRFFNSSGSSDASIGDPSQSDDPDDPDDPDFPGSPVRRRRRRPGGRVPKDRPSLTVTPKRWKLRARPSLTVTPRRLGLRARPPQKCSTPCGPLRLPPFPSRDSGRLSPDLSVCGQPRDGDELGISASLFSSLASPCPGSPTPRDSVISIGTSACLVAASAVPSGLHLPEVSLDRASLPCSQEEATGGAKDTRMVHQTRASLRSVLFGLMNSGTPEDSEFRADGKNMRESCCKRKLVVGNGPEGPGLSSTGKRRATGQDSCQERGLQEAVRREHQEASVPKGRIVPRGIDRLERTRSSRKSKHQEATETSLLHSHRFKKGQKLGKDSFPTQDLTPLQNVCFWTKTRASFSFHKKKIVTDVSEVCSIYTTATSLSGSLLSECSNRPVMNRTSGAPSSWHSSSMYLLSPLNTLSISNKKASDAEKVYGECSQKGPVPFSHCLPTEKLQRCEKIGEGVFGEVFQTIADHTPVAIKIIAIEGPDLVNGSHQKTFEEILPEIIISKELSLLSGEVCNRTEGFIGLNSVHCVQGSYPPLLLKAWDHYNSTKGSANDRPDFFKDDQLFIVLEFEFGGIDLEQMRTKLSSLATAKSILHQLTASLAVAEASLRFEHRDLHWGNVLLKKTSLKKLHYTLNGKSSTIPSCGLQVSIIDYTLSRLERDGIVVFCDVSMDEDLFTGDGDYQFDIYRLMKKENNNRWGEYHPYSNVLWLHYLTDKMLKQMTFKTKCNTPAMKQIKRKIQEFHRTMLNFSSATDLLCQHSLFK

INSRR = molecular target: T7, INSRR (Homo sapiens, UniProt P14616); assay type: binding; conditions: read-out: % Ctrl
T7 construct: purchased DiscoveRx KINOMEscan

DDR1 = molecular target: T8, DDR1 (Homo sapiens, UniProt Q08345); assay type: binding; conditions: read-out: % Ctrl
T8 construct: purchased DiscoveRx KINOMEscan

AKT2 = molecular target: T9, AKT2 (Homo sapiens, UniProt P31751); assay type: binding; conditions: read-out: % Ctrl
T9 construct: purchased DiscoveRx KINOMEscan

CSF1R = molecular target: T10, CSF1R (Homo sapiens, UniProt P07333); assay type: binding; conditions: read-out: % Ctrl
T10 construct: purchased DiscoveRx KINOMEscan

BRSK2 = molecular target: T11, BRSK2 (Homo sapiens, UniProt Q8IWQ3); assay type: binding; conditions: read-out: % Ctrl
T11 construct: purchased DiscoveRx KINOMEscan

DMPK = molecular target: T12, DMPK (Homo sapiens, UniProt Q09013); assay type: binding; conditions: read-out: % Ctrl
T12 construct: purchased DiscoveRx KINOMEscan

PCTK1 = molecular target: T13, PCTK1 (Homo sapiens, UniProt Q00536); assay type: binding; conditions: read-out: % Ctrl
T13 construct: purchased DiscoveRx KINOMEscan

FLT3(ITD) = assay type: binding, human; conditions: 1 µM
DCAMKL3 = molecular target: T14, DCAMKL3 (Homo sapiens, UniProt Q9C098); assay type: binding; conditions: read-out: % Ctrl
T14 construct: purchased DiscoveRx KINOMEscan

ADCK4 = molecular target: T15, ADCK4 (Homo sapiens, UniProt Q96D53); assay type: binding; conditions: read-out: % Ctrl
T15 construct: purchased DiscoveRx KINOMEscan

HUNK = molecular target: T16, HUNK (Homo sapiens, UniProt P57058); assay type: binding; conditions: read-out: % Ctrl
T16 construct: purchased DiscoveRx KINOMEscan

HPK1 = molecular target: T17, HPK1 (Homo sapiens, UniProt Q92918); assay type: binding; conditions: read-out: % Ctrl
T17 construct: purchased DiscoveRx KINOMEscan

ABL1(M351T)-P = molecular target: T18, ABL1(M351T)-P (Homo sapiens, UniProt P00519, M351T); assay type: binding; conditions: read-out: % Ctrl
T18 construct: purchased DiscoveRx KINOMEscan

IGF1R = molecular target: T19, IGF1R (Homo sapiens, UniProt P08069); assay type: binding; conditions: read-out: % Ctrl
T19 construct: purchased DiscoveRx KINOMEscan

NEK1 = molecular target: T20, NEK1 (Homo sapiens, UniProt Q96PY6); assay type: binding; conditions: read-out: % Ctrl
T20 construct: purchased DiscoveRx KINOMEscan

CDKL3 = molecular target: T21, CDKL3 (Homo sapiens, UniProt Q8IVW4); assay type: binding; conditions: read-out: % Ctrl
T21 construct: purchased DiscoveRx KINOMEscan

TYRO3 = molecular target: T22, TYRO3 (Homo sapiens, UniProt Q06418); assay type: binding; conditions: read-out: % Ctrl
T22 construct: purchased DiscoveRx KINOMEscan

EPHA1 = molecular target: T23, EPHA1 (Homo sapiens, UniProt P21709); assay type: binding; conditions: read-out: % Ctrl
T23 construct: purchased DiscoveRx KINOMEscan

ERBB2 = molecular target: T24, ERBB2 (Homo sapiens, UniProt P04626); assay type: binding; conditions: read-out: % Ctrl
T24 construct: purchased DiscoveRx KINOMEscan

TRKA = molecular target: T25, TRKA (Homo sapiens, UniProt P04629); assay type: binding; conditions: read-out: % Ctrl
T25 construct: purchased DiscoveRx KINOMEscan

LCK = molecular target: T26, LCK (Homo sapiens, UniProt P06239); assay type: binding; conditions: read-out: % Ctrl
T26 construct: purchased DiscoveRx KINOMEscan

MST4 = molecular target: T27, MST4 (Homo sapiens, UniProt Q9P289); assay type: binding; conditions: read-out: % Ctrl
T27 construct: purchased DiscoveRx KINOMEscan

PAK7 = molecular target: T28, PAK7 (Homo sapiens, UniProt Q9P286); assay type: binding; conditions: read-out: % Ctrl
T28 construct: purchased DiscoveRx KINOMEscan

CSK = molecular target: T29, CSK (Homo sapiens, UniProt P41240); assay type: binding; conditions: read-out: % Ctrl
T29 construct: purchased DiscoveRx KINOMEscan

ACVR2A = molecular target: T30, ACVR2A (Homo sapiens, UniProt P27037); assay type: binding; conditions: read-out: % Ctrl
T30 construct: purchased DiscoveRx KINOMEscan

AURKA = molecular target: T31, AURKA (Homo sapiens, UniProt O14965); assay type: binding; conditions: read-out: % Ctrl
T31 construct: purchased DiscoveRx KINOMEscan

FYN = molecular target: T32, FYN (Homo sapiens, UniProt P06241); assay type: binding; conditions: read-out: % Ctrl
T32 construct: purchased DiscoveRx KINOMEscan

CLK2 = molecular target: T33, CLK2 (Homo sapiens, UniProt P49760); assay type: binding; conditions: read-out: % Ctrl
T33 construct: purchased DiscoveRx KINOMEscan

T27 sequence (Q9P289 whole entry): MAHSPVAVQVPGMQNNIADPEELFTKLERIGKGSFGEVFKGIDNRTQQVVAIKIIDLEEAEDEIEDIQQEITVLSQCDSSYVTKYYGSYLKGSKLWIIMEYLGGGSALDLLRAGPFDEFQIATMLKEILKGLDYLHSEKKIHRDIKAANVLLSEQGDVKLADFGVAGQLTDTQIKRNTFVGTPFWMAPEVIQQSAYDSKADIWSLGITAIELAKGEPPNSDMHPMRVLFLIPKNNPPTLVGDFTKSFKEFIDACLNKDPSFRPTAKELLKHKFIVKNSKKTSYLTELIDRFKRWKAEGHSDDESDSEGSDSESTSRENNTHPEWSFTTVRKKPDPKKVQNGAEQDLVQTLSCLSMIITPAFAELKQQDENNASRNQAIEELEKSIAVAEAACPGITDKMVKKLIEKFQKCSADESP
T14 sequence (Q9C098 whole entry): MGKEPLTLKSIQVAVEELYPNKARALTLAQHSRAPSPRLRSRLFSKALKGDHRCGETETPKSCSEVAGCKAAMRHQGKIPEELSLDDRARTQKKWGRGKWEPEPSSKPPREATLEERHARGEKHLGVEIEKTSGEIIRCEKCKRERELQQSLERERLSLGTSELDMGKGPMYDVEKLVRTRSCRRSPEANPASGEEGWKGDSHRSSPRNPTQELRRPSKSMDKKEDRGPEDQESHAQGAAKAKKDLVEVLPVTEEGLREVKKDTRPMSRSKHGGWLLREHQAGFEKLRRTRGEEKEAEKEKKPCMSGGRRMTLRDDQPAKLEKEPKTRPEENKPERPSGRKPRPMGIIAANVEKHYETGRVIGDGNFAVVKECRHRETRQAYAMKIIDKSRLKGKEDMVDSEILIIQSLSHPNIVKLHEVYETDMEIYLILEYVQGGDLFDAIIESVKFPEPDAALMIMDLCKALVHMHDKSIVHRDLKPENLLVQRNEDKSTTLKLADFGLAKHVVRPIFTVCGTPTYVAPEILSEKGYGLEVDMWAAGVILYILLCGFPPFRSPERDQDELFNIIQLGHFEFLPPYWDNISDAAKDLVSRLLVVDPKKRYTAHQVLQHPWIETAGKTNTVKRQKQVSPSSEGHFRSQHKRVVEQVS
T3 sequence (O75676 372-772 limits assumed): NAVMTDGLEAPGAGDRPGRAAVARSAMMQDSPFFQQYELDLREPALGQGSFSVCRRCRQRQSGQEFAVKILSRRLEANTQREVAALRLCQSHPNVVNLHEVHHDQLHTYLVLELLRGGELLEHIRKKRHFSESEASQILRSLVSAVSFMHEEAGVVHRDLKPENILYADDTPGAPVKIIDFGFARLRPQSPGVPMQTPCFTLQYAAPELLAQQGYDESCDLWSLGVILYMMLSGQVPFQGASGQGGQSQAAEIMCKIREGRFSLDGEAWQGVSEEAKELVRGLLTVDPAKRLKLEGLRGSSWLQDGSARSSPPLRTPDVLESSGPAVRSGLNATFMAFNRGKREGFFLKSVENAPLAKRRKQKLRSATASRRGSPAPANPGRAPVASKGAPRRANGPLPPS
T28 sequence (Q9P286 whole entry): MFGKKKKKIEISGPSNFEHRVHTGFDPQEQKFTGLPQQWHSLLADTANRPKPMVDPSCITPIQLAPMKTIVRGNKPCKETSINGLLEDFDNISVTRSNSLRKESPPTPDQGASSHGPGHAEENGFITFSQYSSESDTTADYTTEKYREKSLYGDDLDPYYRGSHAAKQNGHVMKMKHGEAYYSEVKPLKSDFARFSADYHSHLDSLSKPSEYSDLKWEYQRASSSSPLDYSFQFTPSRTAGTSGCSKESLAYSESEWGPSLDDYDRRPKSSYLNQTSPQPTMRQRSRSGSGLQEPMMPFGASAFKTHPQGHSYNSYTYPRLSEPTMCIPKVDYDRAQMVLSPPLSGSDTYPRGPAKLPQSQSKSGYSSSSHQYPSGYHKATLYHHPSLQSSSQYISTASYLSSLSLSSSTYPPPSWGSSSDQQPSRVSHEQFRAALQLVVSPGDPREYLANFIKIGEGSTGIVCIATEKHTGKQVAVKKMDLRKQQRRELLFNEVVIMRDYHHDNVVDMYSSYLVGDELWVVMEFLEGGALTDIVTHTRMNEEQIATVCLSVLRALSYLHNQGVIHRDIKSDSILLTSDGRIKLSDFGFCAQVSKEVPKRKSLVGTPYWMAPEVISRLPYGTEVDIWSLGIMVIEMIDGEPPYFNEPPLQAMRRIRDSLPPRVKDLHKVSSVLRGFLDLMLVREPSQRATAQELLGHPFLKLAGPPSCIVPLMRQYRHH
T31 sequence (O14965 whole entry): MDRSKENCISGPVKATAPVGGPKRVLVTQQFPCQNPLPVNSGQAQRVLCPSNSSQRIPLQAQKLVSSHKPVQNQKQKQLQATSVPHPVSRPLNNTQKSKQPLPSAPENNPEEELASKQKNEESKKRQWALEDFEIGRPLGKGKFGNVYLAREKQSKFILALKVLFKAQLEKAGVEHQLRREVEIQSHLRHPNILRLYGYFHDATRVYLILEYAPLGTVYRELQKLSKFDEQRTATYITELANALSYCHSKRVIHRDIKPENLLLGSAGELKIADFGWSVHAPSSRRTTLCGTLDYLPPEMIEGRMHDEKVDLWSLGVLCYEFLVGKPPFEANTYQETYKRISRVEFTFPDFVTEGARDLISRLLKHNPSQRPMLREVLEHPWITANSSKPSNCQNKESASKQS
T4 sequence (Q02750 whole entry): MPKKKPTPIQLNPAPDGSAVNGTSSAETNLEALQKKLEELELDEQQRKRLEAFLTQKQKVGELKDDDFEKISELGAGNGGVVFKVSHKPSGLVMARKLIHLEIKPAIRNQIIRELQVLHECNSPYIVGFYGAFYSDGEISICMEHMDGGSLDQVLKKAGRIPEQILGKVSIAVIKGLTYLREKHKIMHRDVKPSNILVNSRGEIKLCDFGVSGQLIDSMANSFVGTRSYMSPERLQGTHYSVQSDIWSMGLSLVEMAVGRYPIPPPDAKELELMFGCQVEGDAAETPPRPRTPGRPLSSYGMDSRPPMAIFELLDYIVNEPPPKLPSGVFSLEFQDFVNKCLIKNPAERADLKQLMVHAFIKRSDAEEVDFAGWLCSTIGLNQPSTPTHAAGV
T32 sequence (P06241 whole entry): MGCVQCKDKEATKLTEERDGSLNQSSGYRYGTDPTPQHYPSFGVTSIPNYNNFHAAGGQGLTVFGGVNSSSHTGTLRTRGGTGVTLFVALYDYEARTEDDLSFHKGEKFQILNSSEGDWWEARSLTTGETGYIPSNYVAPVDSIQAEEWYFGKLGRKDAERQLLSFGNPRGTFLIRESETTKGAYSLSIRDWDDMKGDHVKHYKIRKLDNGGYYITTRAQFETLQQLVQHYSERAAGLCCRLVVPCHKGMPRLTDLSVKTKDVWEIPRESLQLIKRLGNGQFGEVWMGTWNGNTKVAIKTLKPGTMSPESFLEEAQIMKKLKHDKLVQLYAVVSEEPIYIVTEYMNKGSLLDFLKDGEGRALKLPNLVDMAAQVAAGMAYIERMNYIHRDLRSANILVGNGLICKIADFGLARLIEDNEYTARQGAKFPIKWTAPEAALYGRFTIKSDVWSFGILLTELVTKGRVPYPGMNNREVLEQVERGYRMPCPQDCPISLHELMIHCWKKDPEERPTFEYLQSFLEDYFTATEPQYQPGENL
T26 sequence (P06239 whole entry): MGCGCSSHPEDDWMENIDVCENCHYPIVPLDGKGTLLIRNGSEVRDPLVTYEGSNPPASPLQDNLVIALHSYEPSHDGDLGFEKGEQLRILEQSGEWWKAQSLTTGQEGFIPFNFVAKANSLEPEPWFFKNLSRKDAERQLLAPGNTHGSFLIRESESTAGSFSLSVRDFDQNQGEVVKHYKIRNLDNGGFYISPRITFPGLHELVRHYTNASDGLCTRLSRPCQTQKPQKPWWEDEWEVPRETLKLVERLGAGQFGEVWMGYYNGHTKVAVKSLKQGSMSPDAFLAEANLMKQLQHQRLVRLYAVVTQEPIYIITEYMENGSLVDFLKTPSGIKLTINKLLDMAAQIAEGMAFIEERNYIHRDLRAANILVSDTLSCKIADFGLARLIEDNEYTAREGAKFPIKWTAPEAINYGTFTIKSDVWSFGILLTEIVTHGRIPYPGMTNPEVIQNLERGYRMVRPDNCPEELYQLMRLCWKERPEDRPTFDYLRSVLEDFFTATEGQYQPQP
T11 sequence (Q8IWQ3 whole entry): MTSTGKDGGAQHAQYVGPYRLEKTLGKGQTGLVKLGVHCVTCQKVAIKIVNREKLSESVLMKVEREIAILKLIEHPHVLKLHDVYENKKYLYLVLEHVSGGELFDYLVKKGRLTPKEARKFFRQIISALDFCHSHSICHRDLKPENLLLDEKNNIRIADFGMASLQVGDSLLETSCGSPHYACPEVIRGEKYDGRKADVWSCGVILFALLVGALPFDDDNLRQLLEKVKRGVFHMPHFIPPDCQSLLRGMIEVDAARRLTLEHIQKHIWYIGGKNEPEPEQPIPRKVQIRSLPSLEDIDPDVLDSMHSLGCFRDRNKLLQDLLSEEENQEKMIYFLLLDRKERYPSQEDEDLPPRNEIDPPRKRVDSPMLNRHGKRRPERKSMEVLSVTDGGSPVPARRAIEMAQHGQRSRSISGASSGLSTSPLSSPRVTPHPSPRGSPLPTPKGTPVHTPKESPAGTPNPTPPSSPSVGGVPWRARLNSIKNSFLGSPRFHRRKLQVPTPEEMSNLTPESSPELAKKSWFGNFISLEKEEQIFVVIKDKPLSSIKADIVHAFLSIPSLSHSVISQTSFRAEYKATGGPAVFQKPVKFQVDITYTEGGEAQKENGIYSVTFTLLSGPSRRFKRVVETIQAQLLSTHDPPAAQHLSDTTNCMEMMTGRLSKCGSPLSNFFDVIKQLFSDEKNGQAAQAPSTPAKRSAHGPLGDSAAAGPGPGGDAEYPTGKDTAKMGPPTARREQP

CN1CCC(CNc2ccc3ncc(C(=O)Nc4cccc(OC(F)(F)F)c4)n3n2)CC1 [Cpd 2]
remaining binding at 1 µM (WEE1): 96%
remaining binding at 1 µM (CASK): 93%
remaining binding at 1 µM (RPS6KA4(KD2-C-t.)): 100%
remaining binding at 1 µM (MEK1): 95%
remaining binding at 1 µM (EPHA8): 100%
remaining binding at 1 µM (HASPIN): 30%
remaining binding at 1 µM (INSRR): 94%
remaining binding at 1 µM (DDR1): 92%
remaining binding at 1 µM (AKT2): 100%
remaining binding at 1 µM (CSF1R): 100%
remaining binding at 1 µM (BRSK2): 100%
remaining binding at 1 µM (DMPK): 88%
remaining binding at 1 µM (PCTK1): 100%
% Ctrl (FLT3(ITD)): 100%
remaining binding at 1 µM (DCAMKL3): 100%
remaining binding at 1 µM (ADCK4): 99%
remaining binding at 1 µM (HUNK): 100%
remaining binding at 1 µM (HPK1): 92%
remaining binding at 1 µM (ABL1(M351T)-P): 100%
remaining binding at 1 µM (IGF1R): 100%
remaining binding at 1 µM (NEK1): 99%
remaining binding at 1 µM (CDKL3): 91%
remaining binding at 1 µM (TYRO3): 89%
remaining binding at 1 µM (EPHA1): 100%
remaining binding at 1 µM (ERBB2): 88%
remaining binding at 1 µM (TRKA): 82%
remaining binding at 1 µM (LCK): 77%
remaining binding at 1 µM (MST4): 100%
remaining binding at 1 µM (PAK7): 90%
remaining binding at 1 µM (CSK): 100%
remaining binding at 1 µM (ACVR2A): 100%
remaining binding at 1 µM (AURKA): 96%
remaining binding at 1 µM (FYN): 96%
remaining binding at 1 µM (CLK2): 81%
